Molecular target: ColH-PD (Hathewaya histolytica, UniProt Q46085)
Assay type: biochemical, C. histolyticum

Chain of ColH-PD (Q46085 331-721 limits assumed): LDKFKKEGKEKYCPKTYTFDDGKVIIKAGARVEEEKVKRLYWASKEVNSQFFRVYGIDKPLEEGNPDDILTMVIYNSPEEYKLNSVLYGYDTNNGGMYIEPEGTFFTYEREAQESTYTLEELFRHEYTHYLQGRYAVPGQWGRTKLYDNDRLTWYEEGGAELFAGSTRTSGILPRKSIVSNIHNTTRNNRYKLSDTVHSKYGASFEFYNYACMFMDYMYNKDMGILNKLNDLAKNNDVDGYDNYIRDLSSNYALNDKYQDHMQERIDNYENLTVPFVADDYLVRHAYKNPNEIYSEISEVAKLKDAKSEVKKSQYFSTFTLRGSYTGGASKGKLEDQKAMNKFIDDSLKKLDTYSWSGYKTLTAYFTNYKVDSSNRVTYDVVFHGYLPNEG

O=P(O)(O)c1nc2cc(Cl)c(Cl)cc2nc1P(=O)(O)O [Compound 13, (6,7-Dichloroquinoxaline-2,3-diyl)bis(phosphonic acid)]
Reversibility of inhibition, ColH: reversed compared to ColA
